Laboratory results taken from patent US20240101572A1, “DIHYDROOXADIAZINONE COMPOUND AND PHARMACEUTICAL USE THEREOF” (Japan Tobacco Inc., priority 2022, published 2024).
Where two headings read alike, the source gives them in different places.

Experiments:
[1] = target: full-length human PLD1 (Homo sapiens (Human), UniProt Q13393); experiment: Evaluation of human PLD1 enzyme inhibitory activity (Amplex Red / choline oxidase fluorescence); assay type: biochemical
Method in brief: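 Fluorescence read-out couples choline to Amplex Red via choline oxidase and peroxidase after a 60 min room-temperature reaction. Enzyme: FLAG-tagged full-length human PLD1 from Expi293F cells, anti-FLAG purified; substrate diheptanoyl phosphatidylcholine; HEPES pH 7.5 assay buffer with 0.01% NP-40, 0.1% BSA, 5% DMSO final.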

[2] = target: full-length human PLD2 (Homo sapiens (Human), UniProt O14939); experiment: Evaluation of human PLD2 enzyme inhibitory activity (Amplex Red / choline oxidase fluorescence); assay type: biochemical
full-length human PLD2, sequence (O14939 whole entry): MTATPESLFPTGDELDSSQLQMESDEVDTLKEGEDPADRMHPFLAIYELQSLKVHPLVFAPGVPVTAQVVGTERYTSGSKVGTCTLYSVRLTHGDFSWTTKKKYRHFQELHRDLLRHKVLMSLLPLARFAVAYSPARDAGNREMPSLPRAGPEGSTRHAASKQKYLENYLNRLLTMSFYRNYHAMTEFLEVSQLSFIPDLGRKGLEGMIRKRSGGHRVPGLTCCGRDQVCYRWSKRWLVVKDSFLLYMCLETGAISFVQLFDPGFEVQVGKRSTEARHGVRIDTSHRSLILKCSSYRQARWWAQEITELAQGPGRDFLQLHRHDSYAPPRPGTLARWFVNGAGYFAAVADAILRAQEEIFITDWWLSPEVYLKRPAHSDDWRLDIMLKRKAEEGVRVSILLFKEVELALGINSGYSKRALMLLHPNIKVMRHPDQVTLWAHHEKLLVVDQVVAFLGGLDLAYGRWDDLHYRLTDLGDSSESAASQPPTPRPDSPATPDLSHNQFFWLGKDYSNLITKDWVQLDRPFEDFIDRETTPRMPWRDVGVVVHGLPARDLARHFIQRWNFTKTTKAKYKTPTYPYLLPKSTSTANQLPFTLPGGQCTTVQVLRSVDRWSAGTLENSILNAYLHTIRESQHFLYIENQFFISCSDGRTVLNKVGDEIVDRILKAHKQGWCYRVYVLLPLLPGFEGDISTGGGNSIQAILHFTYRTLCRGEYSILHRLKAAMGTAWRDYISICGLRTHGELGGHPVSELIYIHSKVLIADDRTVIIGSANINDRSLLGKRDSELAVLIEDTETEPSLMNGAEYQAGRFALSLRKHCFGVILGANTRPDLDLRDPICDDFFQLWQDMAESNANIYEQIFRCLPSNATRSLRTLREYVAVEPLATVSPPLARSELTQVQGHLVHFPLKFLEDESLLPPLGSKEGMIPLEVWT
Method in brief: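 Released choline was read by Amplex Red fluorescence coupled to choline oxidase and HRP after a 60 min room-temperature reaction. Substrate was diheptanoyl phosphatidylcholine, added as a 6 mmol/L solution, and enzyme was FLAG-tagged full-length human PLD2 from Expi293F, added as a 6 nmol/L solution. Buffer was 50 mM HEPES pH 7.5 with 5% final DMSO.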

[3] = full-length human PLD1 enzyme, read-out: PLD1 IC50
[4] = full-length human PLD2 enzyme, read-out: PLD2 IC50
[5] = column 1 of continuation tables 2-12 to 2-14, read-out: human PLD1 enzyme inhibitory activity IC50
[6] = column 2 of continuation tables 2-12 to 2-14, read-out: human PLD2 enzyme inhibitory activity IC50

full-length human PLD1, sequence (Q13393 other isoform, or with tags, fused parts or gaps): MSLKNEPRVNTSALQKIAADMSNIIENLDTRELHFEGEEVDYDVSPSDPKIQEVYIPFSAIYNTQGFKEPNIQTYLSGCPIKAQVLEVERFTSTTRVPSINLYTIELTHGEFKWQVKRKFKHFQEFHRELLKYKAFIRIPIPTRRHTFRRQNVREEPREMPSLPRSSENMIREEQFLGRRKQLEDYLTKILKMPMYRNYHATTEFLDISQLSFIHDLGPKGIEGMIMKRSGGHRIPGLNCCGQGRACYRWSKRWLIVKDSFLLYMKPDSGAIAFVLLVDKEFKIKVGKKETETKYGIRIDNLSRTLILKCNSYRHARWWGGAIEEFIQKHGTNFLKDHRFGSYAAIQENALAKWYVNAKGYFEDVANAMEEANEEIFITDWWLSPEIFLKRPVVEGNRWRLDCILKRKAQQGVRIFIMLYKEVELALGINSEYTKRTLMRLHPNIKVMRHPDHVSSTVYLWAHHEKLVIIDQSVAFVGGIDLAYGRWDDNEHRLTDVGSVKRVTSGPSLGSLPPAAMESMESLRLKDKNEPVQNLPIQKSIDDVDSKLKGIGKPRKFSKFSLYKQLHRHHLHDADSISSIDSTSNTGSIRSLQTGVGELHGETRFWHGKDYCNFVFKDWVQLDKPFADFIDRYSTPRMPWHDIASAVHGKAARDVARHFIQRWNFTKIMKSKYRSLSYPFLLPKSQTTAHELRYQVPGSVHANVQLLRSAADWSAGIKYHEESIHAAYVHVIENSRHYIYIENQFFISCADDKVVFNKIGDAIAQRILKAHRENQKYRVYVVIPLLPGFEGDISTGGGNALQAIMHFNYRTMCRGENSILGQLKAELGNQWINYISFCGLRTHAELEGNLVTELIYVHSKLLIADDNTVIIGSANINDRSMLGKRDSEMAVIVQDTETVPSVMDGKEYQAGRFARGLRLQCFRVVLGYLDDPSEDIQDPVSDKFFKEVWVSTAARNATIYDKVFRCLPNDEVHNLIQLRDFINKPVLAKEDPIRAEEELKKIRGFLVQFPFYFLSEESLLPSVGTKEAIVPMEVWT

SMILES | IC50 [1, 3] | IC50 [2, 4] | IC50 [1, 5] | IC50 [2, 6]
CNC(=O)C(=O)NCC[C@H]1CC[C@]2(CC1)OC(=O)NN=C2c1ccc(F)cc1Br [Example 47] | 119 nM | < 10 nM | – | –
Cc1cc(N2CCOCC2)ccc1C1=NNC(=O)O[C@]12CC[C@@H](C[C@H](C)NC(=O)N1CCOCC1)CC2 [Example 200] | 103 nM | 82 nM | – | –
C[C@@H](C[C@H]1CC[C@]2(CC1)OC(=O)NN=C2c1ccc(F)cc1Br)NC(=O)c1cn(C)nn1 [Example 76] | 17 nM | 17 nM | – | –
C[C@@H](C[C@H]1CC[C@]2(CC1)OC(=O)NN=C2c1ccc(F)cc1Br)NC(=O)c1cnn(C)c1 [Example 219] | < 10 nM | < 10 nM | – | –
Cc1cnc(C(=O)N[C@@H](C)C[C@H]2CC[C@]3(CC2)OC(=O)NN=C3c2ccc(F)cc2Br)cn1 [Example 253] | 252 nM | 324 nM | – | –
CBC(=O)C(=O)N[C@@H](C)C[C@H]1CC[C@]2(CC1)OC(=O)NN=C2c1ccc(S(C)(=O)=O)cc1Cl [Example 51] | 33 nM | 16 nM | – | –
CNC(=O)C(=O)N[C@@H](C)C[C@H]1CC[C@]2(CC1)OC(=O)NN=C2c1cnc(I)cc1C [Example 172] | 23 nM | 12 nM | – | –
CNC(=O)C(=O)N[C@@H](C)C[C@H]1CC[C@]2(CC1)OC(=O)NN=C2c1cccc2c1OC(F)(F)O2 [Example 118] | 50 nM | 73 nM | – | –
C[C@@H](C[C@H]1CC[C@]2(CC1)OC(=O)NN=C2c1cc(C#N)ccc1Br)NC(=O)C(=O)NC1CC1 [Example 292] | 23 nM | < 10 nM | – | –
CNC(=O)C(=O)N[C@@H](C)C[C@H]1CC[C@]2(CC1)OC(=O)NN=C2c1ccccc1C [Example 119] | 11 nM | < 10 nM | – | –
Cc1cc(C(=O)N[C@@H](C)C[C@H]2CC[C@]3(CC2)OC(=O)NN=C3c2cccc(OC(F)F)c2Br)[nH]n1 [Example 307] | 13 nM | < 10 nM | – | –
Cc1ccncc1C1=NNC(=O)O[C@]12CC[C@@H](C[C@H](C)NC(=O)c1cc3ccccc3o1)CC2 [Example 114] | 13 nM | < 10 nM | – | –
COC(=O)/C=C/C(=O)N[C@@H](C)CN1CCC2(CC1)OC(=O)NN=C2c1cc(C#N)ccc1Br [Example 2-024] | 46 nM | 28 nM | – | –
C[C@@H](CN1CCC2(CC1)OC(=O)NN=C2c1cc(C#N)ccc1Br)NC(=O)c1ccccc1C(F)(F)F [Example 2-029] | 1510 nM | 8410 nM | – | –
Cc1cc(C(=O)N[C@@H](C)CC2CC[C@]3(C[C@@H]2F)OC(=O)NN=C3c2ccc(F)cc2Br)[nH]n1 (stereo partly drawn) [Example 286] | 14 nM | < 10 nM | – | –
Cc1cc(F)ccc1C1=NNC(=O)O[C@]12CC[C@@H](C[C@H](C)NC(=O)N1Cc3ccccc3C1)CC2 [Example 101] | < 10 nM | < 10 nM | – | –
Cc1cc(C(=O)N[C@@H](C)CN2CCC3(CC2)OC(=O)NN=C3c2ccc(Cl)cc2C)[nH]n1 [Example 217] | 17 nM | < 10 nM | – | –
[2H]C([2H])([2H])NC(=O)C(=O)N[C@@H](C)C[C@]1(C#N)CC[C@@]2(CC1)OC(=O)NN=C2c1ccc(F)cc1Br [Example 2-134] | – | – | 18 nM | < 10 nM
C[C@@H](C[C@]1(C#N)CC[C@@]2(CC1)OC(=O)NN=C2c1cc(OC(F)F)ccc1Br)NC(=O)c1cn(C)cn1 [Example 2-078] | < 10 nM | < 10 nM | – | –
C[C@@H](C[C@H]1CC[C@]2(CC1)OC(=O)NN=C2c1cc(OC(F)(F)F)ccc1Br)NC(=O)c1cnn(C)c1 [Example 303] | 11 nM | < 10 nM | – | –
C[C@@H](CN1CCC2(CC1)OC(=O)NN=C2c1cc(C#N)ccc1Br)NC(=O)c1cncn1C [Example 2-053] | 676 nM | 245 nM | – | –
CNC(=O)C(=O)N[C@@H](C)CN1C[C@H]2CC[C@@H](C1)[C@@]21OC(=O)NN=C1c1ccc(F)cc1Cl [Example 196] | 27 nM | < 10 nM | – | –
C[C@@H](C[C@H]1CC[C@]2(CC1)OC(=O)NN=C2c1cccc(OC(F)F)c1Br)NC(=O)C(=O)NC1CC1 [Example 308] | 15 nM | < 10 nM | – | –
C[C@@H](C[C@H]1CC[C@]2(CC1)OC(=O)NN=C2c1cnc(C2CC2)cc1Cl)NC(=O)N1CCn2nccc2C1 [Example 277] | 17 nM | < 10 nM | – | –
C[C@@H](C[C@H]1CC[C@]2(CC1)OC(=O)NN=C2c1ccc(OC(F)F)cc1Br)NC(=O)c1ccn[nH]1 [Example 143] | 27 nM | 25 nM | – | –
C[C@@H](CC1CCC2(CC1)OC(=O)NN=C2c1ccncc1Br)NC(=O)c1cc(Cl)no1 (mixture of isomers) [Example 121] | < 10 nM | < 10 nM | – | –

SMILES | IC50 [1, 3] | IC50 [2, 4] | IC50 [1, 5] | IC50 [2, 6]
CNC(=O)C(=O)N[C@@H](C)C[C@H]1CC[C@]2(CC1)OC(=O)NN=C2c1cnc(N2CC(C(F)(F)F)C2)cc1C [Example 192] | 21 nM | < 10 nM | – | –
Cc1cc(Cl)c(C2=NNC(=O)O[C@]23CC[C@@H](C[C@H](C)NC(=O)N2CCn4nccc4C2)CC3)cn1 [Example 276] | 21 nM | < 10 nM | – | –
CNC(=O)C(=O)N[C@@H](C)CN1CCC2(CC1)OC(=O)NN=C2c1ccc(Br)cc1C(F)(F)F [Example 328] | 48 nM | 34 nM | – | –
CNC(=O)C(=O)N[C@@H](C)C[C@H]1CC[C@]2(CC1)OC(=O)NN=C2c1cnc(N2CCCCC2)cc1C [Example 166] | 19 nM | < 10 nM | – | –
C[C@@H](C[C@H]1CC[C@]2(CC1)OC(=O)NN=C2c1ccc(F)cc1Br)NC(=O)C1CC1c1ccccc1 (single isomer, unassigned) [Example 39] | 93 nM | 24 nM | – | –
CNC(=O)C(=O)N[C@@H](C)CN1CC[C@]2(C[C@@H]1C)OC(=O)NN=C2c1ccc(C#N)cc1Cl [Example 280] | 147 nM | 316 nM | – | –
Cc1cc(C(=O)N[C@@H](C)[C@@H](C)N2CCC3(CC2)OC(=O)NN=C3c2ccc(F)cc2Br)[nH]n1 [Example 290] | 122 nM | 46 nM | – | –
CNC(=O)C(=O)N[C@@H](C)C[C@]1(C#N)CC[C@@]2(CC1)OC(=O)NN=C2c1cc(C#N)ccc1Br [Example 2-040] | 21 nM | < 10 nM | – | –
C[C@H](NC(=O)c1cnn(C)c1)[C@H](C)[C@H]1CC[C@]2(CC1)OC(=O)NN=C2c1cc(C#N)ccc1Br [Example 339] | 39 nM | 10 nM | – | –
C[C@@H](C[C@H]1CC[C@]2(CC1)OC(=O)NN=C2c1cc(Cl)ccc1Cl)NC(=O)c1cc2ccccn2n1 [Example 313] | 23 nM | 25 nM | – | –
Cc1cc(C(=O)N[C@@H](C)CN2CC[C@@]3(C[C@H]2C)OC(=O)NN=C3c2ccc(C#N)cc2Cl)[nH]n1 [Example 232] | 2580 nM | 2130 nM | – | –
C[C@@H](C[C@H]1CC[C@]2(CC1)OC(=O)NN=C2c1ccc(F)cc1Br)NC(=O)C(F)F [Example 211] | 102 nM | 429 nM | – | –
Cc1cc(C(=O)N[C@@H](C)C[C@]2(O)CC[C@@]3(CC2)OC(=O)NN=C3c2ccc(F)cc2Br)[nH]n1 [Example 322, N—((S)-1-(trans-5-(2-bromo-4-fluorophenyl)-9-hydroxy-2-oxo-1-oxa-3,4-diazaspiro[5,5]undec-4-en-9-yl)propan-2-yl)-3-methyl-1H-pyrazole-5-carboxamide] | 30 nM | < 10 nM | – | –
C[C@@H](CN1CCC2(CC1)OC(=O)NN=C2c1ccc(C(N)=O)cc1Br)NC(=O)c1cnn(C)c1 [Example 337] | 74 nM | 28 nM | – | –
C[C@@H](C[C@H]1CC[C@]2(CC1)OC(=O)NN=C2c1cn(C)nc1I)NC(=O)c1cc(Cl)no1 [Example 2-046] | 24 nM | 118 nM | – | –
CNC(=O)C(=O)N[C@@H](C)C[C@H]1CC[C@]2(CC1)OC(=O)NN=C2c1ccc(F)cc1I [Example 139] | < 10 nM | < 10 nM | – | –
CC(=O)N[C@@H](C)C[C@H]1CC[C@]2(CC1)OC(=O)NN=C2c1ccc(F)cc1Br [Example 11] | 228 nM | 394 nM | – | –
C[C@@H](C[C@H]1CC[C@]2(CC1)OC(=O)NN=C2c1cc(C#N)ccc1Br)NC(=O)c1cc(C2CC2)n[nH]1 [Example 2-069] | < 10 nM | < 10 nM | – | –
Cc1cc(C(=O)N[C@@H](C)C[C@H]2CC[C@]3(CC2)OC(=O)NN=C3c2ccccc2Br)[nH]n1 [Example 27] | 14 nM | 13 nM | – | –
C[C@@H](C[C@H]1CC[C@]2(CC1)OC(=O)NN=C2c1ccc(F)cc1Br)NC(=O)C1(F)CC1 [Example 35] | 257 nM | 367 nM | – | –
[2H]C([2H])([2H])NC(=O)C(=O)N[C@@H](C)C[C@]1(C#N)CC[C@@]2(CC1)OC(=O)NN=C2c1cc(OC(F)F)c(F)cc1Br [Example 2-138] | – | – | 14 nM | < 10 nM
C[C@@H](CN1CCC2(CC1)OC(=O)NN=C2c1ccc(F)cc1Cl)NC(=O)c1cc(C(F)(F)F)on1 [Example 99] | 241 nM | 373 nM | – | –
C[C@@H](C[C@H]1CC[C@]2(CC1)OC(=O)NN=C2c1ccc(F)cc1Br)NC(=O)C(=O)NC1CC1 [Example 203] | 12 nM | < 10 nM | – | –
C[C@@H](C[C@H]1CC[C@]2(CC1)OC(=O)NN=C2c1ccccc1OC(F)(F)F)NC(=O)c1cc(Cl)no1 [Example 111] | 17 nM | 21 nM | – | –
CNC(=O)C(=O)N[C@@H](C)C[C@H]1CC[C@]2(CC1)OC(=O)NN=C2c1cnc(Cl)cc1C [Example 158] | 27 nM | 15 nM | – | –
